18 compounds from article PMC2615555 (Virology, 2008) can be followed below.

Some targets named below: H2-D^d (Mus musculus, UniProt P01900); H2-K^d (Mus musculus, UniProt P01902); H2-L^d (Mus musculus, UniProt P01897).
Holding throughout (test): biochemical
What all share (type): binding, BALB/c mouse

The next experiment has as its target T1, I-A^d (Mus musculus, UniProt P01921+P04228).
T1 sequence (P04228 24-256): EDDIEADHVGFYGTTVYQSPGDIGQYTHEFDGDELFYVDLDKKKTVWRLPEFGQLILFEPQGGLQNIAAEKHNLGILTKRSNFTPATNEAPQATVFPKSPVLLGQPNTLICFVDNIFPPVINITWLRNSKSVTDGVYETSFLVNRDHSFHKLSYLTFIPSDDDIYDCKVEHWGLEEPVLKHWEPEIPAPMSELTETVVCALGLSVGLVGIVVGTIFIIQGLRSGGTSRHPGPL
T1 sequence (P01921 28-265): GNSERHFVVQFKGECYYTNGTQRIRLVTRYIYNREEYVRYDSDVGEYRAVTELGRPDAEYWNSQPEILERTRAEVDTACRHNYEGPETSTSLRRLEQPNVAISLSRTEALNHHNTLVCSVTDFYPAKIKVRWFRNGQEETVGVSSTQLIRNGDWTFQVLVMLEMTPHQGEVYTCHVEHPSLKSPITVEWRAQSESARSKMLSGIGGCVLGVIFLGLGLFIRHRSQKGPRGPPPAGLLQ
The note with it: Binding Assay IC50, I-A^d (membrane 15mers).

A further experiment has as its target T2, I-E^d (Mus musculus, UniProt P01904+P01915).
T2 sequence (P01904 26-255): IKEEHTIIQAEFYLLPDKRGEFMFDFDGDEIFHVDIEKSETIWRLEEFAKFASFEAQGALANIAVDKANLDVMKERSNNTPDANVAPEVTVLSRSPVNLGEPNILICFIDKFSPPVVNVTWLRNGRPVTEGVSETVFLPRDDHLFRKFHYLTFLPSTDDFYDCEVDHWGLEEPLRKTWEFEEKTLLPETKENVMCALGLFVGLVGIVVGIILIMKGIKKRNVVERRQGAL
T2 sequence (P01915 27-264 limits assumed): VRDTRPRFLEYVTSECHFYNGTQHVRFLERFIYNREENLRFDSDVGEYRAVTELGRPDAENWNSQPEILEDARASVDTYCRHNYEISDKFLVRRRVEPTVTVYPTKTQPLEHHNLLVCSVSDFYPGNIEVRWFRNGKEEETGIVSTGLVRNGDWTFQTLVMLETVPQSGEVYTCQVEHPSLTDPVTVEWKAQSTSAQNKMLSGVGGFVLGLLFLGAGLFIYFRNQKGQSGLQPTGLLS

Peptide text beside a SMILES is read from it.

H2-L^d, sequence (P01897 25-362): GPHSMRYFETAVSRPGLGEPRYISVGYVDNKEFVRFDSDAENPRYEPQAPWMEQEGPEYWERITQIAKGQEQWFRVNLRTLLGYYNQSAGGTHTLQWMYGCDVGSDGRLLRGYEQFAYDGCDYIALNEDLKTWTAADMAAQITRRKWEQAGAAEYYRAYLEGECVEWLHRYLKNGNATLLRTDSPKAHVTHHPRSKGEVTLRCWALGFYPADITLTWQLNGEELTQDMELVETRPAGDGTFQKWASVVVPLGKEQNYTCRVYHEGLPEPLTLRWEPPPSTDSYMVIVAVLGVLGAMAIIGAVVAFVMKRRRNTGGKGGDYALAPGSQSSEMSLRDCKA
H2-L^d, sequence (P61769 21-119 partner): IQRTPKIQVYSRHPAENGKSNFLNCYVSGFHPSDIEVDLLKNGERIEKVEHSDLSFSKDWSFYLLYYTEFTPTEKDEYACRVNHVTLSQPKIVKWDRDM
H2-K^d, sequence (P01902 22-368): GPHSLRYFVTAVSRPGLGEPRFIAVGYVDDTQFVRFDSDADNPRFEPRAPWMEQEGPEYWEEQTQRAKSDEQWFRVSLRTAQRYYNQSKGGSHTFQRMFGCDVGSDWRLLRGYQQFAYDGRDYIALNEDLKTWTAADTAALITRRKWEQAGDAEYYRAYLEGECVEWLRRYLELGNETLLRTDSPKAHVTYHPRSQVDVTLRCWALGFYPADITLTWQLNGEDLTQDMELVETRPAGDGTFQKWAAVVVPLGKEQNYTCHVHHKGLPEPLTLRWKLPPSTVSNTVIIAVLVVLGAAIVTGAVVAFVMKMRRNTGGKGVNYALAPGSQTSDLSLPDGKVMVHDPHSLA
H2-K^d, sequence (P61769 21-119 partner): as the sequence (P61769 21-119 partner) above
H2-D^d, sequence (P01900 25-365): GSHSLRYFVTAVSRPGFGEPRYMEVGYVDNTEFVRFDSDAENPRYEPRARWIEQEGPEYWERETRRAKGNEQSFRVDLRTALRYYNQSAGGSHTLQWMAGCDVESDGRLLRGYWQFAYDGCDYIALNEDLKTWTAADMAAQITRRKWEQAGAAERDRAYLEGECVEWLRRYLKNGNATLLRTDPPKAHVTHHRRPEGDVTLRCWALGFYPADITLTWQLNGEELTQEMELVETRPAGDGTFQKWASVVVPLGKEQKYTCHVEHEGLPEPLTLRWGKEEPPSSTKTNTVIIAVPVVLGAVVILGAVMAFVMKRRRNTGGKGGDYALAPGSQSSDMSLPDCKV
H2-D^d, sequence (P61769 21-119 partner): as the sequence (P61769 21-119 partner) above

For orientation: IC50 means the midpoint of a concentration-inhibition curve. Higher therefore signals lower potency. As for `CC(C)C[C@H](NC(=O)[C@@H](NC(=O)[C@H](C)NC(=O)[C@H](CC(N)=O)NC(=O)[C@H](Cc1ccc(O)cc1)NC(=O)[C@H](CS)NC(=O)[C@@H](NC(=O)[C@H](CCCCN)NC(=O)[C@@H](N)CCCNC(=N)N)C(C)C)C(C)C)C(=O)O` [E57–65], the half-inhibitory concentration (IC50) at H2-D^d is > 70 µM; against H2-K^d, > 70 µM; against H2-L^d it was 39.4 µM.
Regarding `CC(C)C[C@H](NC(=O)[C@@H](NC(=O)[C@H](C)NC(=O)[C@H](CC(N)=O)NC(=O)[C@H](Cc1ccc(O)cc1)NC(=O)[C@H](CS)NC(=O)[C@@H](N)C(C)C)C(C)C)C(=O)N[C@H](C(=O)N[C@@H](Cc1c[nH]cn1)C(=O)O)[C@@H](C)O` [E59–67] (H-VCYNAVLTH-OH), the 50% inhibitory concentration (IC50) at H2-D^d was > 70 µM; on H2-K^d, 0.211 µM; on H2-L^d it was 55.4 µM.
On the same counts, the results for `CC(C)C[C@H](NC(=O)[C@@H](NC(=O)[C@H](C)NC(=O)[C@H](CC(N)=O)NC(=O)[C@H](Cc1ccc(O)cc1)NC(=O)[C@@H](N)CS)C(C)C)C(=O)N[C@H](C(=O)N[C@@H](Cc1c[nH]cn1)C(=O)N[C@H](C(=O)O)C(C)C)[C@@H](C)O` [E60–68] (H-CYNAVLTHV-OH) are > 70 µM, 0.001 µM and > 70 µM.
On the same counts, the results for `CC(C)C[C@H](NC(=O)[C@@H](NC(=O)[C@H](C)NC(=O)[C@H](CC(N)=O)NC(=O)[C@@H](N)Cc1ccc(O)cc1)C(C)C)C(=O)N[C@H](C(=O)N[C@@H](Cc1c[nH]cn1)C(=O)N[C@H](C(=O)N[C@@H](CCCCN)C(=O)O)C(C)C)[C@@H](C)O` [E61–69] (H-YNAVLTHVK-OH) are > 70 µM, 0.093 µM and > 70 µM.
As for `CC[C@H](C)[C@H](NC(=O)[C@H](CCCCN)NC(=O)[C@@H](NC(=O)[C@H](Cc1c[nH]cn1)NC(=O)[C@@H](NC(=O)[C@H](CC(C)C)NC(=O)[C@@H](NC(=O)[C@H](C)NC(=O)[C@@H](N)CC(N)=O)C(C)C)[C@@H](C)O)C(C)C)C(=O)O` [E62–70] (H-NAVLTHVKI-OH), the results for the half-inhibitory concentration (IC50) against H2-D^d, against H2-K^d and at H2-L^d were > 70 µM, 1.54 µM and > 70 µM, respectively.
Regarding `CC[C@H](C)[C@H](NC(=O)[C@H](CCCCN)NC(=O)[C@@H](NC(=O)[C@H](Cc1c[nH]cn1)NC(=O)[C@@H](NC(=O)[C@H](CC(C)C)NC(=O)[C@@H](NC(=O)[C@H](C)N)C(C)C)[C@@H](C)O)C(C)C)C(=O)N[C@@H](CC(N)=O)C(=O)O` [E63–71] (H-AVLTHVKIN-OH), the half-maximal inhibitory concentration (IC50) is > 70 µM at H2-D^d, 54.7 µM at H2-K^d and 20.7 µM at H2-L^d.
For `CC[C@H](C)[C@H](NC(=O)[C@@H](NC(=O)[C@@H]1CCCN1C(=O)[C@@H](NC(=O)[C@H](CCCNC(=N)N)NC(=O)[C@@H](N)CS)[C@@H](C)CC)C(C)C)C(=O)N[C@H](C(=O)N[C@@H](C)C(=O)N[C@@H](CC(=O)O)C(=O)O)C(C)C` [E330–338] (H-CRIPVIVAD-OH), the concentration for half-maximal inhibition (IC50) is > 70 µM on H2-D^d, 0.915 µM on H2-K^d and 54.2 µM at H2-L^d.
Regarding `CC[C@H](C)[C@H](N)C(=O)N1CCC[C@H]1C(=O)N[C@H](C(=O)N[C@H](C(=O)N[C@H](C(=O)N[C@@H](C)C(=O)N[C@@H](CC(=O)O)C(=O)N[C@@H](CC(=O)O)C(=O)N[C@@H](CC(C)C)C(=O)O)C(C)C)[C@@H](C)CC)C(C)C` [E332–340] (H-IPVIVADDL-OH), the IC50 on H2-D^d is > 70 µM; on H2-K^d, 33 µM; at H2-L^d it was 0.056 µM.
On the same counts, the results for `CC[C@H](C)[C@H](NC(=O)[C@@H](NC(=O)[C@@H]1CCCN1)C(C)C)C(=O)N[C@H](C(=O)N[C@@H](C)C(=O)N[C@@H](CC(=O)O)C(=O)N[C@@H](CC(=O)O)C(=O)N[C@@H](CC(C)C)C(=O)N[C@H](C(=O)O)[C@@H](C)O)C(C)C` [E333–341] (H-PVIVADDLT-OH) are > 70 µM, > 70 µM and 3.72 µM.
With `CC[C@H](C)[C@H](NC(=O)[C@@H](N)C(C)C)C(=O)N[C@H](C(=O)N[C@@H](C)C(=O)N[C@@H](CC(=O)O)C(=O)N[C@@H](CC(=O)O)C(=O)N[C@@H](CC(C)C)C(=O)N[C@H](C(=O)N[C@@H](C)C(=O)O)[C@@H](C)O)C(C)C` [E334–342] (H-VIVADDLTA-OH), the values for the IC50 against H2-D^d, against H2-K^d and against H2-L^d were > 70 µM, > 70 µM and 19.2 µM, respectively.
`CC[C@H](C)[C@H](N)C(=O)N[C@H](C(=O)N[C@@H](C)C(=O)N[C@@H](CC(=O)O)C(=O)N[C@@H](CC(=O)O)C(=O)N[C@@H](CC(C)C)C(=O)N[C@H](C(=O)N[C@@H](C)C(=O)N[C@@H](C)C(=O)O)[C@@H](C)O)C(C)C` [E335–343] (H-IVADDLTAA-OH): the IC50 on H2-D^d was > 70 µM; against H2-K^d, > 70 µM; against H2-L^d it was 38 µM.
In the case of `CC[C@H](C)[C@H](NC(=O)[C@@H](NC(=O)[C@H](CC(C)C)NC(=O)[C@H](C)NC(=O)[C@@H](NC(=O)[C@@H](NC(=O)[C@H](C)NC(=O)[C@H](Cc1ccccc1)NC(=O)[C@H](Cc1ccccc1)NC(=O)[C@@H]1CCCN1C(=O)[C@H](CC(N)=O)NC(=O)[C@H](CCCNC(=N)N)NC(=O)[C@@H](N)C(C)C)C(C)C)[C@@H](C)O)[C@@H](C)O)C(=O)N[C@@H](C)C(=O)N[C@@H](Cc1ccc(O)cc1)C(=O)O` [M37–51], the figures for the concentration for half-maximal inhibition (IC50) at I-A^d and at I-E^d were 0.04 µM and 1.92 µM, respectively.
On the same counts, the results for `CC[C@H](C)[C@H](NC(=O)[C@@H](NC(=O)[C@H](CC(C)C)NC(=O)[C@H](C)NC(=O)[C@@H](NC(=O)[C@@H](NC(=O)[C@H](C)NC(=O)[C@H](Cc1ccccc1)NC(=O)[C@@H](N)Cc1ccccc1)C(C)C)[C@@H](C)O)[C@@H](C)O)C(=O)N[C@@H](C)C(=O)N[C@@H](Cc1ccc(O)cc1)C(=O)N[C@@H](CC(C)C)C(=O)N[C@H](C(=O)NCC(=O)N[C@@H](CO)C(=O)O)C(C)C` [M41–55] are 6.21 µM and > 45 µM.
Regarding `CC[C@H](C)[C@H](NC(=O)[C@@H](NC(=O)[C@H](CC(C)C)NC(=O)[C@H](C)NC(=O)[C@@H](N)[C@@H](C)O)[C@@H](C)O)C(=O)N[C@@H](C)C(=O)N[C@@H](Cc1ccc(O)cc1)C(=O)N[C@@H](CC(C)C)C(=O)N[C@H](C(=O)NCC(=O)N[C@@H](CO)C(=O)N[C@@H](CC(N)=O)C(=O)N[C@@H](CCSC)C(=O)N[C@H](C(=O)N[C@@H](CCC(N)=O)C(=O)O)[C@@H](C)O)C(C)C` [M45–59], the half-inhibitory concentration (IC50) on I-A^d was 0.102 µM; at I-E^d, > 45 µM.
For the compound `CC[C@H](C)[C@H](N)C(=O)N[C@@H](C)C(=O)N[C@@H](Cc1ccc(O)cc1)C(=O)N[C@@H](CC(C)C)C(=O)N[C@H](C(=O)NCC(=O)N[C@@H](CO)C(=O)N[C@@H](CC(N)=O)C(=O)N[C@@H](CCSC)C(=O)N[C@H](C(=O)N[C@@H](CCC(N)=O)C(=O)N[C@@H](CCCNC(=N)N)C(=O)N[C@H](C(=O)N[C@H](C(=O)N[C@H](C(=O)O)[C@@H](C)CC)C(C)C)C(C)C)[C@@H](C)O)C(C)C` [M49–63], the results for the IC50 on I-A^d and at I-E^d were 0.383 µM and 29.7 µM, respectively.
For `CC[C@H](C)[C@H](NC(=O)[C@@H](NC(=O)[C@@H](NC(=O)[C@H](CCCNC(=N)N)NC(=O)[C@H](CCC(N)=O)NC(=O)[C@@H](NC(=O)[C@H](CCSC)NC(=O)[C@H](CC(N)=O)NC(=O)[C@H](CO)NC(=O)CNC(=O)[C@@H](N)C(C)C)[C@@H](C)O)C(C)C)C(C)C)C(=O)N[C@@H](C)C(=O)N[C@@H](CC(C)C)C(=O)N[C@@H](CC(C)C)C(=O)N[C@H](C(=O)O)C(C)C` [M53–67], in that order: 0.03 µM and 32.3 µM.
For `CC[C@H](C)[C@H](NC(=O)[C@@H](NC(=O)[C@@H](NC(=O)[C@H](CCCNC(=N)N)NC(=O)[C@H](CCC(N)=O)NC(=O)[C@@H](NC(=O)[C@@H](N)CCSC)[C@@H](C)O)C(C)C)C(C)C)C(=O)N[C@@H](C)C(=O)N[C@@H](CC(C)C)C(=O)N[C@@H](CC(C)C)C(=O)N[C@H](C(=O)N[C@@H](CC(C)C)C(=O)N[C@@H](C)C(=O)N[C@H](C(=O)NCC(=O)O)C(C)C)C(C)C` [M57–71], in that order: 6.48 µM and > 45 µM.
On the same counts, the results for `CC[C@H](C)[C@H](NC(=O)[C@@H](NC(=O)[C@@H](N)C(C)C)C(C)C)C(=O)N[C@@H](C)C(=O)N[C@@H](CC(C)C)C(=O)N[C@@H](CC(C)C)C(=O)N[C@H](C(=O)N[C@@H](CC(C)C)C(=O)N[C@@H](C)C(=O)N[C@H](C(=O)NCC(=O)N1CCC[C@H]1C(=O)N[C@@H](C)C(=O)N[C@@H](Cc1ccc(O)cc1)C(=O)N[C@@H](CO)C(=O)O)C(C)C)C(C)C` [M61–75] are 0.38 µM and > 45 µM.
